# Assay results: US6495588B2, “Scytonemin and methods of using thereof” (The Regents of the University of California, priority 2000, dated 2002)
# Legend:
# GST-Tie2 = molecular target: T1, GST-Tie2 (Homo sapiens, UniProt Q02763); assay: GST-Tie kinase activity assay; type: biochemical
# T1 construct: Each reaction comprised 5 μg GST-Tie2 (intracellular kinase domain); made in house; host or cells: baculovirus (pAcG1 vector)
# Protocol: To determine the effect of SCY on GST-Tie kinase activity, the following assay was conducted. Clones for the Tie2 receptor were obtained and submitted for confirmatory sequence analysis. Similar to the method described by Huang et al. (1995) Oncogene 11:2097-2103, which is herein incorporated by reference, GST fusion constructs using the human Tie kinase domains and the commercially available pAcG1 vector (Pharmigen, San Diego, Calif.) were constructed. […] The desired restriction fragment was recovered from a partial Tie2 cDNA clone and then subcloned directly into the EcoRI site of the commercially pAcG1 expression vector. These final constructs were transfected into the baculovirus and GST-Tie2 kinase was semipurified using a glutathione affinity column to greater than about 90% purity, as determined via SDS-PAGE analysis and Coomassie Blue staining.
# The kinase assay is carried out in 96 well flashplates and in the same kinase buffer used in the PLK1 kinase assays. Each reaction comprised 5 μg GST-Tie2 (intracellular kinase domain), 1 μCi [^33P]-γATP, 30 μM cold ATP in 60 μl. Compounds were in DMSO to give a final concentration of 1% DMSO. The reaction was incubated for 2 hours at 30° C. and terminated by washing the plate five times with 10 μM cold ATP. Reactions were quantitated by using a Packard Top-Count.
# GST-CHK1 = molecular target: T2, GST-CHK1 (Homo sapiens, UniProt O14757); assay: GST-Chk1 activity assay; type: biochemical; settings: 10 μM cold ATP, GST-cdc25C substrate
# T2 construct: made in house
# T2 sequence (O14757 1-476): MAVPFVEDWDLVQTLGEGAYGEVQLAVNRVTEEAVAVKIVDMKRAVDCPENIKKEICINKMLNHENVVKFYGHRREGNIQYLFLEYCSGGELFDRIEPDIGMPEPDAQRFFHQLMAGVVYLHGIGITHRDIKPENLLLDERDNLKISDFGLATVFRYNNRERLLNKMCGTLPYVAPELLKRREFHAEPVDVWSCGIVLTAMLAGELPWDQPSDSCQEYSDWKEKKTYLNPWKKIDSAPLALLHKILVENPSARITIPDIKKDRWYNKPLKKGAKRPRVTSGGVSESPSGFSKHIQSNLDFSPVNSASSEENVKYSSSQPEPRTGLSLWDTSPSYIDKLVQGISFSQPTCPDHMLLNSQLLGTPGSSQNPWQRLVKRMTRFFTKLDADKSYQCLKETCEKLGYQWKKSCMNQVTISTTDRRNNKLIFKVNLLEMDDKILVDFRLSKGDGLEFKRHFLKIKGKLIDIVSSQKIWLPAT
# Protocol: To determine the effect of SCY on GST-Chk1 activity, the following assay was conducted. GST-Chk1 were expressed and purified using a method previously described in Jackson et al. (2000) Can. Res. 60:566-572, which is herein incorporated by reference. GST-Chk1 was purified to […] purity as determined via SDS-PAGE analysis. The remaining 30% was attributed to free GST. Flashplates were coated with 1 μg GST-cdc25C and 100 μM ATP at 4° C. The plates were washed twice with PBS, then 0.5 μCi [^33P]-γATP, 10 μM cold ATP, and 2 μg GST-CHK1, were added to the wells in kinase reaction buffer comprising 20 mM HEPES (pH 7.4), 50 mM KCl, 10 mM MgCl2, 1 mM EGTA, and 0.5 mM DTT. Activity was measured in the presence of scytonemin (SCY) in 100% DMSO yielding a 4% DMSO final concentration. Reactions were initiated by the addition of the enzyme, incubated at 37° C. for 30 minutes, and stopped by washing the plates five times with PBS. The amount of [^33P]-γATP incorporation was measured on a Packard Top-count.
# rhPKCβ2 = molecular target: T3, rhPKCβ2 (Homo sapiens, UniProt P05771); assay: PKC activity assay; type: biochemical; settings: 0.01 μM ATP; read-out: IC50 rhPKC activity
# T3 construct: made in house; host or cells: baculovirus expression system
# Protocol: RhPKCβ2 was expressed in a baculovirus expression system. Kinase reactions were conducted in 50 μl comprising 0.5 μg rhPKC diluted in 2 mM Tris, and 100 μM EGTA and reaction buffer comprising substrate (0.9 mM EGTA, 1.1 mM CaCl2, 0.01 mg/ml glycogen synthase peptide (H-[…]OH) (Bachem, King of Prussia, Pa.), 40 μg/ml L-α-Phosphatidyl-L-serine, 1 μg/ml 1,3-Diolen, 10 mM MgCl2, pH 7.5). To assess PKA activity, kinase reactions were conducted in 50 μl comprising 0.5 μg PKA (from bovine heart supplied by Sigma, St. Louis, Mo.) diluted in 10 mM MOPS, pH 6.5 and reaction buffer comprising substrate (50 mM MOPS, pH 6.5, 10 mM MgCl2, 0.1 mg/ml Histone-IIA (Sigma, St. Louis, Mo.), 1 μM cAMP). An ATP solution (0.01 μM ATP and 0.5 μCi of [γ^33-P] ATP) was then added to the wells in both assay systems. Inhibitors were added at the indicated concentrations with a final DMSO concentration of 10%. Reactions were allowed to proceed for 20 minutes at 37° C. and were stopped with 25 mM EDTA. The reactions were spotted onto filter paper, washed four times in a beaker comprising 75 mM phosphoric acid and rinsed with acetone. Filters were dried and put in scintillation vials with fluid and counted.
# LPS-stimulated monocytes = assay: Proinflammatory mediator production in LPS-stimulated monocytes; type: cell-based
# T1 sequence (Q02763 824-1096 limits assumed): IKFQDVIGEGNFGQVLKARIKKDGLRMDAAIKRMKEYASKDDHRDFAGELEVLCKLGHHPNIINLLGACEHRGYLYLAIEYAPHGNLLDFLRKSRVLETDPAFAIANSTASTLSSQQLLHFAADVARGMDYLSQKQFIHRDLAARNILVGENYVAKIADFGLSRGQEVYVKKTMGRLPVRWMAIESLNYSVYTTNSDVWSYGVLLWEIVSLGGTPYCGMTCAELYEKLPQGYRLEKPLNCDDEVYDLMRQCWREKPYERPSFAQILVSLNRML
# T3 sequence (P05771 1-673 isoform P05771-2): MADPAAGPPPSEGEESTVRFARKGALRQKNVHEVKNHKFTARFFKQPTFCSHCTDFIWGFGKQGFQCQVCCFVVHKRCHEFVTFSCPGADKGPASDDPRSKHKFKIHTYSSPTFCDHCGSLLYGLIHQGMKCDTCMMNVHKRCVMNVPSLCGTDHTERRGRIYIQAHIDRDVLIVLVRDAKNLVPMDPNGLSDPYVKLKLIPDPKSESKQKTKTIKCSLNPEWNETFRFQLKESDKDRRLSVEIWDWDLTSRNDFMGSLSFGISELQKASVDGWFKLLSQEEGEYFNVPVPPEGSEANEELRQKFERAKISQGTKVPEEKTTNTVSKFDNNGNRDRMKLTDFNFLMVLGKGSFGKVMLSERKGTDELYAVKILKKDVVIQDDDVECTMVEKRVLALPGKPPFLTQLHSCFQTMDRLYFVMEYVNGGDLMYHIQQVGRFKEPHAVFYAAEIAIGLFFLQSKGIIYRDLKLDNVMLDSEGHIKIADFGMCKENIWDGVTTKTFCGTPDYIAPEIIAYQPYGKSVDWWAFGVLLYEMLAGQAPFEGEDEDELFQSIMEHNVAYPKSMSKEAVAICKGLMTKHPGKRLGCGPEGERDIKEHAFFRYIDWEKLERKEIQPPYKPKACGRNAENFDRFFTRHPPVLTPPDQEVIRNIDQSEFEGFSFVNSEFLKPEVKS
substance,measurement,setting,value
scytonemin,IC50,GST-Tie2,> 10000 nM
same,concentration at which GST-Tie2 activity is significantly affected or inhibited,GST-Tie2; 30 μM cold ATP,≥ 10 µM
same,IC50,GST-CHK1,~1400 nM
same,IC50,rhPKCβ2,~3000 nM
same,IL-1β production,LPS-stimulated monocytes,reduces
same,PGE2 production,LPS-stimulated monocytes,reduces
same,TNFα production,LPS-stimulated monocytes,reduces
